Test results reported in patent publication US5624894A, “Brain-enhanced delivery of neuroactive peptides by sequential metabolism” (University of Florida, priority 1995, dated 1997).
Several values for one entry are separate records, joined by “and”; a condition that tells them apart may be missing. Equal entries are not always repeated. Square brackets hold non-standard residues; d marks the D form. Peptide text beside a SMILES is read from it. * marks the point of attachment. O(cholesteryl) = CC(C)CCC[C@@H](C)[C@H]1CC[C@H]2[C@@H]3CC=C4C[C@@H](O*)CC[C@]4(C)[C@H]3CC[C@]12C; Nicotinoyl(1-Me-1,4-dihydro) = CN1C=CCC(C(=O)*)=C1

Legend:
Swiss Webster mice = assay: Methohexital (barbiturate)-induced sleeping time in mice after i.v. injection; type: in vivo; conditions: mice; for methohexital induced sleeping time, individual animals / methohexital induced sleeping time, mean: methohexital 90 mg/kg i.p. 10 min later
Excerpt: Two representative chemical delivery systems (CDS's) of the invention for the TRH analog [Leu^2 ]-TRH, i.e., compound (8) of Scheme I/EXAMPLE 8, which has an alanine spacer, and compound (12) of Scheme II/Example 12, which has an alanine-alanine spacer, were studied for their effects on the barbiturate-induced sleeping time in mice. TRH is known to antagonize the reduction in cholinergic activity induced by barbiturates. Thus, the activational effects of the CDS's for TRH analogs on cholinergic neurons can be measured by quantitating the antagonism of pentobarbital-induced sleeping and barbiturate-induced reduction in cholinergic neuronal activity.
Swiss Webster mice weighing 30±2 g were used. The compounds were dissolved in a vehicle consisting of DMSO, ethanol and 50% (w/w) 2-hydroxypropyl-β-cyclodextrin at a ratio of 1:2:1 (15 mg/ml). CDS's at a dose of 30 mg/kg were injected in the animals through the tail vein. Vehicle only and an equimolar dose of TRH and [Leu^2 ]-TRH, 10 mg/kg, were also administered to compare CNS activities. Ten minutes after i.v. injection of the compound, each animal received an intraperitoneal injection of sodium methohexital solution (45 mg/ml) at a dose of 90 mg/kg. The sleeping time was recorded as the time elapsed from the onset of loss of the […] until the reflex was regained. Each compound and the vehicle control were tested on 5-11 animals. The statistical analysis was performed using the Student's t test.

Sprague-Dawley rats = assay: Rat tail flick test (analgesia) after i.v. administration; type: in vivo; set-up: Area under the latency change vs. time curve, AUC0-240 min: unit not given here; conditions: for Tail flick latency period / Maximum tail flick latency: cutoff 60 s; for Tail flick latency period / Maximum tail flick latency / Area under the latency change vs. time curve, AUC0-240 min: mean ± S.E.; for Number of Animals with maximum tail flick latency >60 seconds: cutoff latency 60 seconds; for analgesic effect in tail flick test (in words): i.v., compared to control
Experimental: Sprague-Dawley rats weighing 200-250 g were used. Drugs were dissolved in the vehicle consisting of DMSO, ethanol and 50% (w/w) 2-hydroxypropyl-β-cyclodextrin at a ratio of 1:2:1. A-CDS at a dose of 5 or 10 mg/2 ml/kg was injected in the animals through the tail vein. Vehicle only, or an equimolar dose (5 mg/kg) of DADLE (equimolar to 10 mg/kg of A-CDS) was also administered to compare the pharmacological activities. Tail flick latency, an index of spinal cord mediated analgesia, was measured before (control) and at 5 minutes, 15 minutes, 30 minutes, 1 hour, 2 hours, 3 hours, 4 hours, 5 hours and 6 hours after drug administration. The instrument used was a model 33 tail flick analgesia meter (lite, Inc., Landing, N.J.) set with the beam dial at 90 and the sensitivity at 8. Time between presentation of a focused beam of light and the reflexive removal of the tail from the stimulus was defined as the tail flick latency period, and the tail flick latency difference between each time point and control was defined as the change in tail flick latency. In the absence of response, a cut-off period of 1 minute was used. Each drug at each dose was tested in ten animals. Results are presented in Tables 5-8 below and in FIGS. 3-5.
Another representative chemical delivery system (AA-CDS) of the invention for the enkephalin analog DADLE, namely compound (69) of EXAMPLE 69, which has an alanine-alanine spacer, was studied in the same rat tail flick test procedure described above to determine its analgesic effects compared to DADLE itself. AA-CDS was tested at a dose of 10 mg/2 ml/kg, which is equimolar to 5 mg/kg of DADLE, and compared with vehicle and 5mg/kg of DADLE exactly as described above. Each dose was tested in ten animals.

[1] = Table 1 experiment, CDS 30 mg/kg i.v.
[2] = 5 mg/kg i.v., 0 min (prior to drug administration)
[3] = 10 mg/kg i.v., 0 min (prior to drug administration)
[4] = Table 2 experiment, 10 mg/kg i.v.

SMILES	methohexital induced sleeping time, individual animals (Swiss Webster mice; [1])	methohexital induced sleeping time, mean (Swiss Webster mice; [1])	No. of Death (Swiss Webster mice; [1])	Number of Animals with maximum tail flick latency 20-40 seconds (Sprague-Dawley rats; 5 mg/kg i.v.)	Number of Animals with maximum tail flick latency 40-60 seconds (Sprague-Dawley rats; 5 mg/kg i.v.)	Number of Animals with maximum tail flick latency <20 seconds (Sprague-Dawley rats; 5 mg/kg i.v.)	Tail flick latency period (Sprague-Dawley rats; [2])	Tail flick latency period (Sprague-Dawley rats; 5 mg/kg i.v., 5 min)	Tail flick latency period (Sprague-Dawley rats; 5 mg/kg i.v., 15 min)	Tail flick latency period (Sprague-Dawley rats; 5 mg/kg i.v., 30 min)	Tail flick latency period (Sprague-Dawley rats; 5 mg/kg i.v., 60 min)	Tail flick latency period (Sprague-Dawley rats; 5 mg/kg i.v., 120 min)	Tail flick latency period (Sprague-Dawley rats; 5 mg/kg i.v., 180 min)	Tail flick latency period (Sprague-Dawley rats; 5 mg/kg i.v., 240 min)	Tail flick latency period (Sprague-Dawley rats; 5 mg/kg i.v., 300 min)	Maximum tail flick latency (Sprague-Dawley rats; 5 mg/kg i.v.)	Number of Animals with maximum tail flick latency >60 seconds (Sprague-Dawley rats; 5 mg/kg i.v.)	Area under the latency change vs. time curve, AUC0-240 min (Sprague-Dawley rats; 5 mg/kg i.v.)	Number of Animals with maximum tail flick latency 20-40 seconds (Sprague-Dawley rats; 10 mg/kg i.v.)	Number of Animals with maximum tail flick latency 40-60 seconds (Sprague-Dawley rats; 10 mg/kg i.v.)	further results
CC(C)CCC[C@@H](C)[C@H]1CC[C@H]2[C@@H]3CC=C4C[C@@H](OC(=O)CNC(=O)[C@@H]5CCCN5C(=O)[C@H](CC(C)C)NC(=O)[C@H](CCC(N)=O)NC(=O)[C@H](C)NC(=O)C5=CN(C)C=CC5)CC[C@]4(C)[C@H]3CC[C@]12C [Compound (8), 1.4-Dihydrotrigonellyl-Ala-Gln-Leu-Pro-Gly-Cholesteryl Ester] ({Nicotinoyl(1-Me-1,4-dihydro)}-AQLPG-{O(cholesteryl)})	18.23 min and 15.33 min and 11.90 min and 17.27 min and 46.07 min and 18.58 min and 15.73 min and 34.43 min and 16.15 min	21.52 min	2	–	–	–	–	–	–	–	–	–	–	–	–	–	–	–	–	–	–
CC(C)CCC[C@@H](C)[C@H]1CC[C@H]2[C@@H]3CC=C4C[C@@H](OC(=O)CNC(=O)[C@@H]5CCCN5C(=O)[C@H](CC(C)C)NC(=O)[C@H](CCC(N)=O)NC(=O)[C@H](C)NC(=O)[C@H](C)NC(=O)C5=CN(C)C=CC5)CC[C@]4(C)[C@H]3CC[C@]12C [Compound (12), 1,4-Dihydrotrigonellyl-Ala-Ala-Gln-Leu-Pro-Gly-Cholesteryl Ester] ({Nicotinoyl(1-Me-1,4-dihydro)}-AAQLPG-{O(cholesteryl)})	12.08 min and 17.18 min and 27.05 min and 10.07 min and 16.40 min and 19.00 min and 8.13 min and 15.38 min and 17.93 min and 9.45 min	15.27 min	1	–	–	–	–	–	–	–	–	–	–	–	–	–	–	–	–	–	–
CC(C)CCC[C@@H](C)[C@H]1CC[C@H]2[C@@H]3CC=C4C[C@@H](OC(=O)[C@@H](CC(C)C)NC(=O)[C@H](Cc5ccccc5)NC(=O)CNC(=O)[C@@H](C)NC(=O)[C@H](Cc5ccc(O)cc5)NC(=O)[C@H](C)NC(=O)C5=CN(C)C=CC5)CC[C@]4(C)[C@H]3CC[C@]12C [Compound (64), 1,4-Dihydrotrigonellyl-Ala-Tyr-D-Ala-Gly-Phe-D-Leu-Cholesteryl Ester] ({Nicotinoyl(1-Me-1,4-dihydro)}-AY[dA]GF[dL]-{O(cholesteryl)})	–	–	–	2	2	4	7.24 ± 0.58 s	25.95 ± 5.64 s	20.63 ± 5.40 s	14.22 ± 2.22 s	13.00 ± 1.97 s	18.37 ± 5.10 s	16.63 ± 2.02 s	20.28 ± 5.58 s	17.84 ± 3.42 s	33.05 ± 5.99 s	2	2528.70 ± 663.78	1	3	Number of Animals with maximum tail flick latency <20 seconds (Sprague-Dawley rats; 10 mg/kg i.v.): 0; Tail flick latency period (Sprague-Dawley rats; [3]): 9.21 ± 0.53 s; Tail flick latency period (Sprague-Dawley rats; 10 mg/kg i.v., 5 min): 49.67 ± 4.67 s; Tail flick latency period (Sprague-Dawley rats; 10 mg/kg i.v., 15 min): 40.71 ± 7.00 s; Tail flick latency period (Sprague-Dawley rats; 10 mg/kg i.v., 30 min): 36.03 ± 6.34 s; Tail flick latency period (Sprague-Dawley rats; 10 mg/kg i.v., 60 min): 32.59 ± 6.63 s; Tail flick latency period (Sprague-Dawley rats; 10 mg/kg i.v., 120 min): 26.28 ± 4.56 s; Tail flick latency period (Sprague-Dawley rats; 10 mg/kg i.v., 180 min): 28.50 ± 4.40 s; Tail flick latency period (Sprague-Dawley rats; 10 mg/kg i.v., 240 min): 28.30 ± 4.68 s; Tail flick latency period (Sprague-Dawley rats; 10 mg/kg i.v., 300 min): 30.15 ± 3.81 s; Maximum tail flick latency (Sprague-Dawley rats; 10 mg/kg i.v.): 51.94 ± 3.83 s; Number of Animals with maximum tail flick latency >60 seconds (Sprague-Dawley rats; 10 mg/kg i.v.): 6; Area under the latency change vs. time curve, AUC0-240 min (Sprague-Dawley rats; 10 mg/kg i.v.): 4897.80 ± 1011.63; analgesic effect in tail flick test (in words) (Sprague-Dawley rats): significant and prolonged increase in the latency of the tail-flick response
CC(C)CCC[C@@H](C)[C@H]1CC[C@H]2[C@@H]3CC=C4C[C@@H](OC(=O)[C@@H](CC(C)C)NC(=O)[C@H](Cc5ccccc5)NC(=O)CNC(=O)[C@@H](C)NC(=O)[C@H](Cc5ccc(O)cc5)NC(=O)[C@H](C)NC(=O)[C@H](C)NC(=O)C5=CN(C)C=CC5)CC[C@]4(C)[C@H]3CC[C@]12C [Compound (69), 1,4Dihydrotrigonellyl-Ala-Ala-Tyr-D-Ala-Gly-Phe-D-Leu-Cholesteryl Ester] ({Nicotinoyl(1-Me-1,4-dihydro)}-AAY[dA]GF[dL]-{O(cholesteryl)})	–	–	–	–	–	–	–	–	–	–	–	–	–	–	–	–	–	–	2	2	Number of Animals with maximum tail flick latency <20 seconds (Sprague-Dawley rats; 10 mg/kg i.v.): 3; Tail flick latency period (Sprague-Dawley rats; [3]): 8.47 ± 0.76 s; Tail flick latency period (Sprague-Dawley rats; 10 mg/kg i.v., 5 min): 29.78 ± 5.99 s; Tail flick latency period (Sprague-Dawley rats; 10 mg/kg i.v., 15 min): 20.24 ± 5.07 s; Tail flick latency period (Sprague-Dawley rats; 10 mg/kg i.v., 30 min): 20.41 ± 5.42 s; Tail flick latency period (Sprague-Dawley rats; 10 mg/kg i.v., 60 min): 13.77 ± 2.01 s; Tail flick latency period (Sprague-Dawley rats; 10 mg/kg i.v., 120 min): 11.81 ± 0.99 s; Tail flick latency period (Sprague-Dawley rats; 10 mg/kg i.v., 180 min): 15.94 ± 1.89 s; Tail flick latency period (Sprague-Dawley rats; 10 mg/kg i.v., 240 min): 13.99 ± 0.95 s; Tail flick latency period (Sprague-Dawley rats; 10 mg/kg i.v., 300 min): 18.43 ± 4.52 s; Maximum tail flick latency (Sprague-Dawley rats; 10 mg/kg i.v.): 34.27 ± 6.20 s; Number of Animals with maximum tail flick latency >60 seconds (Sprague-Dawley rats; 10 mg/kg i.v.): 2; Area under the latency change vs. time curve, AUC0-240 min (Sprague-Dawley rats; 10 mg/kg i.v.): 1639.67 ± 266.61; analgesic effect in tail flick test (in words) (Sprague-Dawley rats): produced a significant analgesic effect
CC(C)C[C@@H](NC(=O)[C@H](Cc1ccccc1)NC(=O)CNC(=O)[C@@H](C)NC(=O)[C@@H](N)Cc1ccc(O)cc1)C(=O)O [DADLE, H-Tyr-D-Ala-Gly-Phe-D-Leu-OH, reference compound]	–	–	–	3	0	7	7.97 ± 0.60 s	12.15 ± 1.53 s	12.67 ± 1.18 s	12.66 ± 1.70 s	15.75 ± 3.03 s	10.11 ± 1.29 s	10.94 ± 1.65 s	10.64 ± 1.68 s	10.02 ± 1.08 s	19.68 ± 2.42 s	0	775.58 ± 273.20	–	–	–
NC(=O)[C@@H]1CCCN1C(=O)[C@H](Cc1cnc[nH]1)NC(=O)[C@@H]1CCC(=O)N1 [TRH, PyroGlu-His-Pro-NH2]	–	–	–	–	–	–	–	–	–	–	–	–	–	–	–	–	–	–	–	–	methohexital induced sleeping time, individual animals (Swiss Webster mice; [4]): 20.47 min and 23.90 min and 15.00 min and 12.90 min and 11.17 min and 11.77 min and 40.82 min; methohexital induced sleeping time, mean (Swiss Webster mice; [4]): 19.43 min; No. of Death (Swiss Webster mice; [4]): 2; behavior / symptoms of animals after i.v. administration (Swiss Webster mice; i.v.): tremor, tail-elevation and piloerection
